From patent publication US20260193219A1, “TRIAZINE DERIVATIVES FOR TREATING DISEASES RELATING TO NEUROTROPHINS” (AlzeCure Pharma AB, priority 2020, published 2026)

Legend:
[1] = Human liver microsomal stability; type: in vitro ADME; settings: human liver microsomes 0.5 mg/mL, 3 μM compound, NADPH, 37° C.
Experimental: A 10 mM stock solution (in DMSO) was prepared for each compound. From the intermediate stock solution of 2 mM, a working solution of 0.5 mM was prepared by diluting the compound in Acetonitrile:water (50:50). The compound (1.8 μL of working solution) was spiked in 0.1 M potassium phosphate buffer (260.7 μL), pH 7.4 at a concentration of 3 μM (0.1% DMSO). Following this, human liver microsomes (pooled, Invitrogen, #HMMCPL) (7.5 μL; final protein conc. 0.5 mg/mL) were added. The aforementioned sample was incubated at 37° C. for 5 min. Subsequently, 30 μL of 10 mM NADPH prepared in 0.1 M potassium phosphate buffer was added (as a co-factor) to initiate the reaction. The samples were then incubated at 37° C. for 0, 20, 40, 60 and 120 min.
At each time point (0, 20, 40, 60 and 120 min), 40 μL of the samples were withdrawn and reactions were stopped using 360 μL chilled acetonitrile or methanol containing suitable internal standard (Carbamazepine). The samples were centrifuged and the supernatants was analyzed in duplicate by LC-MS/MS. The percent compound remaining at each time point was calculated with respect to that of the 0 min sample. Control samples were run without NADPH for initial and final time point and blank samples was prepared using DMSO (without the test compound).
For comparison, the experiment was also performed with known Trk receptor signalling modulator 1-methyl-3-[3-methyl-4-(4-trifluoromethanesulfonylphenoxy)phenyl]-1,3,5-triazinane-2,4,6-trione) (ponazuril). Ponazuril is metabolized very slowly in vivo and this prolonged exposure creates an increased risk of side effects if the compound is administered systemically. This causes significant challenges to the development of the compound as a systemic drug.

TrkB = target: T1, TrkB (Homo sapiens, UniProt Q16620); test: In vitro Trk receptor modulation assay (Enzyme Fragment Complementation), U2OS cells over-expressing TrkB; type: cell-based; settings: compound pre-mixed with ligand (NGF), final 10 ng/mL, 3 hours, modulator mode
T1 construct: expressed in transfected cells; host or cells: U2OS
T1 sequence (Q16620 32-822): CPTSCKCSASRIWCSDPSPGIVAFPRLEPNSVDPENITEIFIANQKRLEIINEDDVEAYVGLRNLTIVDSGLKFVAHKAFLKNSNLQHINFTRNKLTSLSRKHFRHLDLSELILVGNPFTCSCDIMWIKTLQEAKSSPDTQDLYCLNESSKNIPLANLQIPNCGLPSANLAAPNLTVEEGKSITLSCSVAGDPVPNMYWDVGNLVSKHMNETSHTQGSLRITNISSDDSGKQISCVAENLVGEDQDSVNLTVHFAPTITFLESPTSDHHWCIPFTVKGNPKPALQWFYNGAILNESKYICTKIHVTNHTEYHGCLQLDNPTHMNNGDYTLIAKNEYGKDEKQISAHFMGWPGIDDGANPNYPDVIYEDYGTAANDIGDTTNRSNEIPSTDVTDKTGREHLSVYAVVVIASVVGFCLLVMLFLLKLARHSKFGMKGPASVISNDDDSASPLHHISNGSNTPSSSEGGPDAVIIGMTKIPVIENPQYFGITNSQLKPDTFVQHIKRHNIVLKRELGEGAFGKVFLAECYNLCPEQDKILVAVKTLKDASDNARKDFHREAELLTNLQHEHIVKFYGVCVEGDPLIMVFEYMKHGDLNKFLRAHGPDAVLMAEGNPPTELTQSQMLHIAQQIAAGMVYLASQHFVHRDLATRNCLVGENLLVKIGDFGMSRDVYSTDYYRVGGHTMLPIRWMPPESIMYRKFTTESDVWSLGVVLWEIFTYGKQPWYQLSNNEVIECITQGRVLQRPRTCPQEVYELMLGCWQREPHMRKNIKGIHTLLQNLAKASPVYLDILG
From the text: (§1) A high throughput cell-based screen was used to identify positive modulators of TrkA and TrkB. The screen involves the use of cell-based assay overexpressing TrkA, or TrkB. The purpose of the assay is to identify compounds that modulate neurotrophin signalling (Forsell et al 2012). The assay can be used in inhibitor mode using a high concentration of ligand, in modulator mode using an intermediate concentration and in agonist mode using a low concentration of ligand.
(§2) The assay uses Enzyme Fragment Complementation (EFC) technique, which is a proximity-based assay. Briefly, cells used in this assay over-express two fusion proteins, i.e. the receptor, which can be one of TrkA or TrkB fused to a small peptide of beta-galactosidase and an adaptor protein, i.e. SHC1 (or any other Trk-adaptor protein) fused to the major part of beta-galactosidase. […] The proximity between the small activating peptide on the receptor and the major part of beta-galactosidase on the adaptor protein leads to an active beta-galactosidase enzyme. The activation of the receptor is quantified by measuring the amount of active beta-galactosidase by its conversion of a non-luminescent substrate into a luminescent product.
(§3) U2OS-cells, over-expressing TrkA or TrkB, were plated in 96- or 384-well plates and incubated overnight. On the following day, test compound was pre-mixed with ligand (NGF) and the ligand-compound mixture is then added to the cells to yield a final ligand concentration of 10 ng/mL. After 3 hours of incubation at room temperature, the incubation is stopped by the addition of a beta-galactosidase substrate mixture containing detergents. The substrate mixture is incubated for 60 minutes at ambient temperature. The luminescence is thereafter read by the use of a plate reader.

TrkA = target: T2, TrkA (Homo sapiens, UniProt P04629); test: In vitro Trk receptor modulation assay (Enzyme Fragment Complementation), U2OS cells over-expressing TrkA; type: cell-based; settings: compound pre-mixed with ligand (NGF), final 10 ng/mL, 3 hours, modulator mode
T2 construct: expressed in transfected cells; host or cells: U2OS
T2 sequence (P04629 33-796): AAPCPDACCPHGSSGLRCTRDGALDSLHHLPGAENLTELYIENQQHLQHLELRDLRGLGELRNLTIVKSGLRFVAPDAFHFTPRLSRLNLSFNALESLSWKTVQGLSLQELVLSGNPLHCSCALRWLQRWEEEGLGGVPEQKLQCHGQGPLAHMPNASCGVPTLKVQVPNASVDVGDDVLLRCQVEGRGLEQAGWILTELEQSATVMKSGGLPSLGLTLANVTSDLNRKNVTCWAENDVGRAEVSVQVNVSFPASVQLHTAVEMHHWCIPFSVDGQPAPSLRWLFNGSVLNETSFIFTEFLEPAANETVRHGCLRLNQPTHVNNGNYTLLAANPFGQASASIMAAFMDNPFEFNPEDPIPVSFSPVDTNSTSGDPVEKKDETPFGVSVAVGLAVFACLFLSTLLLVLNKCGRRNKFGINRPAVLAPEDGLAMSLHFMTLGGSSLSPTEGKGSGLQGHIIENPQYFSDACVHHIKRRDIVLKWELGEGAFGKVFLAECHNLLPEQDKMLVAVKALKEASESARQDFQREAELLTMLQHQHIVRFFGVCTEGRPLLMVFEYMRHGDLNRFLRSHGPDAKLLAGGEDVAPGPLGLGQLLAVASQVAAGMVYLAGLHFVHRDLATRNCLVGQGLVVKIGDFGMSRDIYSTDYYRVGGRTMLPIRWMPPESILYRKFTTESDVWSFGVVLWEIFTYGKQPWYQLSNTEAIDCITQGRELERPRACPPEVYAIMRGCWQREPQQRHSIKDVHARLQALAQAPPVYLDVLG
From the text: as §1, §2, §3

C57/Bl6 mice = test: Passive avoidance task in scopolamine-treated mice; type: in vivo; settings: mice treated with scopolamine 0.3 mg/kg s.c.; compound single s.c. administration 60 min prior to training, different doses
Experimental: The passive avoidance (PA) is an aversive learning task based on classical (Pavlovian) fear conditioning that allows for analysis of both facilitation and impairment of memory function by adjusting the unconditioned stimulus, i.e. the electrical foot shock. Commonly a cognitive-impairing agent is administered to the animals to mimic the neurochemical disturbances present in various cognitive disorders e.g. cholinergic (scopolamine) and glutamatergic (MK-801) deficits.
Prior to testing, the animals are brought to the experimental room where they were allowed to habituate for 60 min. The test is conducted using a modified shuttle box with two communicating compartments of equal size with a small sliding door built into the separating wall and a stainless-steel bar floor. One of the compartments is not illuminated and thus black whereas the other compartment (the light one) is illuminated by an electric bulb, installed on the top of a plexiglass cover. The PA training is conducted in a single session. […] Latency to cross over into the dark compartment (training latency) is recorded. […] The latency to cross over into the dark compartment with all four feet is measured (retention latency) as well as time in bright compartment and a number of other relevant parameters (e.g. number of visits in the dark compartment). […]

SMILES | % of parent compound metabolized after 120 min [1] | EC50 (TrkB) | EC50 (TrkA) | cognitive function, retention latency within the bright area (passive avoidance) (C57/Bl6 mice)
COCc1cccc(-n2c(=O)[nH]c(=O)n(-c3ccc(Oc4ccccc4)c(C)c3)c2=O)c1 [Example 2, 1-[3-(methoxymethyl)phenyl]-3-(3-methyl-4-phenoxyphenyl)-1,3,5-triazinane-2,4,6-trione] | 13.3% | 260 nM | 430 nM | 
Cc1cc2cccc(-n3c(=O)[nH]c(=O)n(-c4ccc(Oc5ccccc5)c(C)c4)c3=O)c2o1 [Example 4, 1-(2-methyl-1-benzofuran-7-yl)-3-(3-methyl-4-phenoxyphenyl)-1,3,5-triazinane-2,4,6-trione] | 37.7% | 270 nM | 300 nM | 
Cc1cccc(-n2c(=O)[nH]c(=O)n(-c3ccc(Oc4ccccc4)c(CN4CCNC4=O)c3)c2=O)c1 [Example 5, 1-(3-methylphenyl)-3-{3-[(2-oxoimidazolidin-1-yl)methyl]-4-phenoxyphenyl}-1,3,5-triazinane-2,4,6-trione] | 15.4% | 120 nM | 300 nM | 
CCc1cc(-n2c(=O)[nH]c(=O)n(-c3ccccc3)c2=O)ccc1Oc1ccccc1 [Example 6, 1-(3-ethyl-4-phenoxyphenyl)-3-phenyl-1,3,5-triazinane-2,4,6-trione] |  | 220 nM | 210 nM | 
COc1ccc(-n2c(=O)[nH]c(=O)n(-c3ccc(Oc4ccccc4)c(C)c3)c2=O)cc1 [Example 8, 1-(4-methoxyphenyl)-3-(3-methyl-4-phenoxyphenyl)-1,3,5-triazinane-2,4,6-trione] |  | 230 nM | 350 nM | 
CSc1cc(-n2c(=O)[nH]c(=O)n(-c3ccccc3)c2=O)ccc1Oc1ccccc1 [Example 13, 1-[3-(methylsulfanyl)-4-phenoxyphenyl]-3-phenyl-1,3,5-triazinane-2,4,6-trione] | 4.7% | 380 nM | 640 nM | 
CSc1cc(-n2c(=O)[nH]c(=O)n(-c3cccc(C)c3)c2=O)ccc1Oc1ccccc1 [Example 14, 1-(3-methylphenyl)-3-[3-(methylsulfanyl)-4-phenoxyphenyl]-1,3,5-triazinane-2,4,6-trione] | 53.4% | 300 nM | 650 nM | 
Cc1cc(-n2c(=O)[nH]c(=O)n(C)c2=O)ccc1Oc1ccc(S(=O)(=O)C(F)(F)F)cc1 [ponazuril, 1-methyl-3-[3-methyl-4-(4-trifluoromethanesulfonylphenoxy)phenyl]-1,3,5-triazinane-2,4,6-trione, reference compound] | 3.1% |  |  | 

Now from value to molecule, other results behind:

% of parent compound metabolized after 120 min [1] | EC50 (TrkB) | EC50 (TrkA) | SMILES | cognitive function, retention latency within the bright area (passive avoidance) (C57/Bl6 mice)
82.0% | 310 nM | 330 nM | COCc1cc(-n2c(=O)[nH]c(=O)n(-c3cccc(C)c3)c2=O)ccc1Oc1ccccc1 [Example 3, 1-[3-(methoxymethyl)-4-phenoxyphenyl]-3-(3-methylphenyl)-1,3,5-triazinane-2,4,6-trione] | improves cognitive function
48.8% | 90 nM | 130 nM | CCc1cc(-n2c(=O)[nH]c(=O)n(-c3cccc(C)c3)c2=O)ccc1Oc1ccccc1 [Example 7, 1-(3-ethyl-4-phenoxyphenyl)-3-(3-methylphenyl)-1,3,5-triazinane-2,4,6-trione] | 
82.8% | 150 nM | 210 nM | Cc1cccc(-n2c(=O)[nH]c(=O)n(-c3ccc(Oc4ccccc4)c(OCC(=O)N4CCCC4)c3)c2=O)c1 [Example 9, 1-(3-methylphenyl)-3-{3-[2-oxo-2-(pyrrolidin-1-yl)ethoxy]-4-phenoxyphenyl}-1,3,5-triazinane-2,4,6-trione] | 
99.8% | 320 nM | 280 nM | Cc1cccc(-n2c(=O)[nH]c(=O)n(-c3ccc(Oc4ccccc4)c(OCC(=O)N4CCCCC4)c3)c2=O)c1 [Example 10, 1-(3-methylphenyl)-3-{3-[2-oxo-2-(piperidin-1-yl)ethoxy]-4-phenoxyphenyl}-1,3,5-triazinane-2,4,6-trione] | 
57.3% | 180 nM | 270 nM | Cc1cccc(-n2c(=O)[nH]c(=O)n(-c3ccc(Oc4ccccc4)c(OCC(=O)N4CCOCC4)c3)c2=O)c1 [Example 11, 1-(3-methylphenyl)-3-{3-[2-(morpholin-4-yl)-2-oxoethoxy]-4-phenoxyphenyl}-1,3,5-triazinane-2,4,6-trione] | 
 | 220 nM | 410 nM | Cc1cccc(-n2c(=O)[nH]c(=O)n(-c3ccc(Oc4ccccc4)c(OCC(=O)N4CCC4)c3)c2=O)c1 [Example 12, 1-{3-[2-(azetidin-1-yl)-2-oxoethoxy]-4-phenoxyphenyl}-3-(3-methylphenyl)-1,3,5-triazinane-2,4,6-trione] | 
29.6% | 110 nM | 40 nM | Cc1cccc(-n2c(=O)[nH]c(=O)n(-c3ccc(Oc4ccccc4)c(CN4CCCC4=O)c3)c2=O)c1 [Example 15, 1-(3-methylphenyl)-3-{3-[(2-oxopyrrolidin-1-yl)methyl]-4-phenoxyphenyl}-1,3,5-triazinane-2,4,6-trione] | 
